# Patent US11180510B2, “Xanthine derivatives and uses thereof as inhibitors of bromodomains of BET proteins” (Centre national de la recherche scientifique, priority 2017, dated 2021)
# Structures can show the parent of a compound that is named as a salt.
# Biological target: BRD4(BD1) (Homo sapiens, UniProt O60885)
# Assay: HTRF assay, BRD4(BD1)/histone peptide interaction
# Format: binding
# Set-up: made in house
# Conditions: HTRF; triplicates; NA = IC50 > maximal concentration of compound used
# Method: HTRF assays were performed in white 384 Well Small Volume™ HiBase Polystyrene Microplates (Greiner) with a total working volume of 20 μL. Compounds were dispensed, with 100 nL per well (0.5% final DMSO), from a concentration stock of 10 mM in 100% DMSO and with serial DMSO dilutions, using an Echo® 550 robot from the Access Labcyte platform (Labcyte) and based on the transfer of liquid by acoustic wave. Then, 19.5 μL of buffer is added, using a Multidrop Combi (Thermo Fisher Scientific). […] All HTRF reagents (donor and acceptor) were purchased from CisBio Bioassays and reconstituted according to the supplier protocols. The peptide was purchased from Genic Bio Synthetic. The BRD4(1) protein was produced and purified in the laboratory.
# Percentage of inhibition was calculated using the following equation: % inhibition=[(compound signal)−(min signal)]/[(max signal)−(min signal)]*100, where ‘max signal’ is the signal ratio with the compound vehicle alone (DMSO) and ‘min signal’ the signal ratio without peptide.
# Selectivity profiles of bromodomain inhibitors were performed as described in HTRF screen section. […] HTRF detection reagents (EPIgeneous™ Binding Domain kits) were purchased from Cisbio Bioassays and used according to supplier's protocol. GST tagged bromodomain proteins were purchased from BPS Bioscience and histone peptide from Genic Bio Synthetic.
row,SMILES,IC50
1,"COC(=O)C1CCC(CNS(=O)(=O)c2ccc3c(c2)CCCC(=O)N3)CC1 (stereo not drawn) [Compound 1c, Methyl 4-((2-oxo-2,3,4,5-tetrahydro-1H-benzo[b]azepine-7-sulfonamido)methyl)cyclohexanecarboxylate]",53 µM
2,O=C1CCCc2cc(S(=O)(=O)NCC3CCC(C(=O)NCc4cccs4)CC3)ccc2N1 (stereo not drawn) [Compound 5a],> 50 µM
3,O=C1CCCc2cc(S(=O)(=O)NCC3CCC(C(=O)NCc4ccccn4)CC3)ccc2N1 (stereo not drawn) [Compound 6a],29 µM
4,O=C1CCCc2cc(S(=O)(=O)NCC3CCC(C(=O)NCc4ccncc4)CC3)ccc2N1 (stereo not drawn) [Compound 6c],30 µM
5,O=C1CCCc2cc(S(=O)(=O)NCC3CCC(C(=O)NCc4cccc(O)c4)CC3)ccc2N1 (stereo not drawn) [Compound 7c],23 µM
6,Cc1noc(C)c1CNC(=O)C1CCC(CNS(=O)(=O)c2ccc3c(c2)CCCC(=O)N3)CC1 (stereo not drawn) [Compound 8a],22 µM
7,CS(=O)(=O)NCC1CCC(C(=O)NCCc2cccs2)CC1 (stereo not drawn) [Compound 8c],18 µM
8,O=C1CCCc2cc(S(=O)(=O)N3CCC(C(=O)NCc4cccs4)CC3)ccc2N1 [Compound 11b],> 50 µM
9,O=C1CCCc2cc(S(=O)(=O)N3CCC(C(=O)NCCc4cccs4)CC3)ccc2N1 [Compound 11c],> 50 µM
10,O=C1CCCc2cc(S(=O)(=O)NCc3ccc(C(=O)NCc4ccccn4)cc3)ccc2N1 [Compound 14a],> 25 µM
11,O=C1CCCc2cc(S(=O)(=O)NCc3ccc(C(=O)NCc4cccnc4)cc3)ccc2N1 [Compound 14b],> 25 µM
12,O=C1CCCc2cc(S(=O)(=O)NCc3ccc(C(=O)NCc4ccncc4)cc3)ccc2N1 [Compound 14c],> 25 µM
13,O=C1CCCc2cc(S(=O)(=O)NCc3ccc(C(=O)NCc4cccc(O)c4)cc3)ccc2N1 [Compound 15b],46 µM
14,"CCn1cnc2c1c(=O)[nH]c(=O)n2Cc1ccc(CN)cc1 [Compound 20a, 3-(4-(aminomethyl)benzyl)-7-ethyl-1H-purine-2,6(3H,7H)-dione trifluoroacetic salt]",27 µM
15,CCn1cnc2c1c(=O)[nH]c(=O)n2Cc1ccc(CNS(C)(=O)=O)cc1 [Compound 20b],4.3 µM
16,CCCS(=O)(=O)NCc1ccc(Cn2c(=O)[nH]c(=O)c3c2ncn3CC)cc1 [Compound 20c],3.6 µM
17,CCn1cnc2c1c(=O)[nH]c(=O)n2Cc1ccc(CNS(=O)(=O)CC(C)C)cc1 [Compound 21a],2.9 µM
18,CCn1cnc2c1c(=O)[nH]c(=O)n2Cc1ccc(CNS(=O)(=O)CCOC)cc1 [Compound 21b],5.2 µM
19,CCn1cnc2c1c(=O)[nH]c(=O)n2Cc1ccc(CNS(=O)(=O)CC2CCCC2)cc1 [Compound 21c],1.4 µM
20,CCn1cnc2c1c(=O)[nH]c(=O)n2Cc1ccc(CNS(=O)(=O)CCN2CCOCC2)cc1 [Compound 22a],4.5 µM
21,CCn1cnc2c1c(=O)[nH]c(=O)n2Cc1ccc(CNS(=O)(=O)CCCN2CCOCC2)cc1 [Compound 22b],7.5 µM

row,SMILES,IC50
1,CCn1cnc2c1c(=O)[nH]c(=O)n2Cc1ccc(CNS(=O)(=O)CCc2ccccc2)cc1 [Compound 22c],1.4 µM
2,CCn1cnc2c1c(=O)[nH]c(=O)n2Cc1ccc(CNS(=O)(=O)c2cn(C)cn2)cc1 [Compound 23a],3.5 µM
3,CCn1cnc2c1c(=O)[nH]c(=O)n2Cc1ccc(CNS(=O)(=O)c2cn(C)c(C)n2)cc1 [Compound 23b],1.7 µM
4,CCc1nc(S(=O)(=O)NCc2ccc(Cn3c(=O)[nH]c(=O)c4c3ncn4CC)cc2)cn1C [Compound 23c],1.3 µM
5,CCn1cnc2c1c(=O)[nH]c(=O)n2Cc1ccc(CNS(=O)(=O)c2ccn(C(C)C)n2)cc1 [Compound 24a],2.7 µM
6,CCn1cnc2c1c(=O)[nH]c(=O)n2Cc1ccc(CNS(=O)(=O)c2cc(C)ns2)cc1 [Compound 24c],1.7 µM
7,CCn1cnc2c1c(=O)[nH]c(=O)n2Cc1ccc(CNS(=O)(=O)c2ccc3oncc3c2)cc1 [Compound 26a],2.2 µM
8,CCn1cnc2c1c(=O)[nH]c(=O)n2Cc1ccc(CNS(=O)(=O)c2ccc3c(c2)n(C)c(=O)n3C)cc1 [Compound 26b],0.769 µM
9,CCn1cnc2c1c(=O)[nH]c(=O)n2Cc1ccc(CNS(=O)(=O)c2ccc3c(c2)CCN3C(C)=O)cc1 [Compound 26c],0.817 µM
10,CCn1cnc2c1c(=O)[nH]c(=O)n2Cc1ccc(CNS(=O)(=O)c2cc(-c3ccno3)ccc2C)cc1 [Compound 27a],1.3 µM
11,CCn1cnc2c1c(=O)[nH]c(=O)n2Cc1ccc(CNS(=O)(=O)c2ccc([N+](=O)[O-])cc2)cc1 [Compound 28a],1.3 µM
12,CCn1cnc2c1c(=O)[nH]c(=O)n2Cc1ccc(CNS(=O)(=O)c2ccc(N)cc2)cc1 [Compound 28b],0.729 µM
13,CCn1cnc2c1c(=O)[nH]c(=O)n2Cc1ccc(CNS(=O)(=O)c2ccc(C)cc2)cc1 [Compound 28c],0.687 µM
14,CCn1cnc2c1c(=O)[nH]c(=O)n2Cc1ccc(CNS(=O)(=O)c2ccccc2)cc1 [Compound 29a],1.6 µM
15,CCn1cnc2c1c(=O)[nH]c(=O)n2Cc1ccc(CNS(=O)(=O)c2ccc(-c3coc(C)n3)cc2)cc1 [Compound 30a],0.6 µM
16,CCn1cnc2c1c(=O)[nH]c(=O)n2Cc1ccc(CNS(=O)(=O)c2ccc(OC)cc2)cc1 [Compound 30b],0.687 µM
17,CCn1cnc2c1c(=O)[nH]c(=O)n2Cc1ccc(CNS(=O)(=O)c2cccc(NC(C)=O)c2)cc1 [Compound 31b],0.723 µM
18,CCn1cnc2c1c(=O)[nH]c(=O)n2Cc1ccc(CNC(=O)CCC2CC2)cc1 [Compound 33b],4.7 µM
19,"CCCn1cc(C(=O)NCc2ccc(Cn3c(=O)[nH]c(=O)c4c3ncn4CC)cc2)cn1 [Compound 33c, N-(4-((7-ethyl-2,6-dioxo-1H-purin-3(2H,6H,7H)-yl)methyl)benzyl)-1-propyl-1H-pyrazole-4-carboxamide]",4.5 µM
20,CCn1cnc2c1c(=O)[nH]c(=O)n2Cc1ccc(CNC(=O)C2CCN(C)C2)cc1 (stereo not drawn) [Compound 34a],4.3 µM
21,CCCC(=O)N1CCC(C(=O)NCc2ccc(Cn3c(=O)[nH]c(=O)c4c3ncn4CC)cc2)CC1 [Compound 34b],2.8 µM

row,SMILES,IC50
1,CCn1cnc2c1c(=O)[nH]c(=O)n2Cc1ccc(CNC(=O)c2ccc(N3CCc4ccccc4C3)cc2)cc1 [Compound 34c],0.749 µM
2,CCn1cnc2c1c(=O)[nH]c(=O)n2Cc1ccc(CNC(=O)C2CCCC(O)C2)cc1 (stereo not drawn) [Compound 35a],2.8 µM
3,CCn1cnc2c1c(=O)[nH]c(=O)n2Cc1ccc(CNC(=O)C2CCC(CO)CC2)cc1 (stereo not drawn) [Compound 35b],7 µM
4,CCn1cnc2c1c(=O)[nH]c(=O)n2Cc1ccc(CNC(=O)[C@H](O)c2ccc(C)cc2)cc1 [Compound 35c],1.8 µM
5,CCn1cnc2c1c(=O)[nH]c(=O)n2Cc1ccc(CNC(=O)CCC(C)C)cc1 [Compound 36a],2.2 µM
6,CCn1cnc2c1c(=O)[nH]c(=O)n2Cc1ccc(CNC(=O)c2ccc(Oc3ccccc3)cc2)cc1 [Compound 37a],2 µM
7,CCn1cnc2c1c(=O)[nH]c(=O)n2Cc1ccc(CNC(=O)C(NC(=O)OC(C)(C)C)c2ccc(C)cc2)cc1 (stereo not drawn) [Compound 37b],4.9 µM
8,CCn1cnc2c1c(=O)[nH]c(=O)n2Cc1ccc(CNC(=O)[C@@H]2C[C@@H](c3ccccc3)CN2C(=O)OC(C)(C)C)cc1 [Compound 38a],1.7 µM
9,CCn1cnc2c1c(=O)[nH]c(=O)n2Cc1ccc(CNC(=O)[C@H]2CC[C@H](CNC(=O)OC(C)(C)C)CC2)cc1 [Compound 38b],8.1 µM
10,CCn1cnc2c1c(=O)[nH]c(=O)n2Cc1ccc(CNC(=O)[C@H](CC2CC2)NC(=O)OC(C)(C)C)cc1 [Compound 38c],5.5 µM
11,CCn1cnc2c1c(=O)[nH]c(=O)n2Cc1ccc(CNC(=O)[C@@H]2CCCN(C(=O)OC(C)(C)C)C2)cc1 [Compound 39a],6.8 µM
12,CCC[C@H](NC(=O)OC(C)(C)C)C(=O)NCc1ccc(Cn2c(=O)[nH]c(=O)c3c2ncn3CC)cc1 [Compound 39b],2.3 µM
13,CCn1cnc2c1c(=O)[nH]c(=O)n2Cc1ccc(CNC(=O)[C@@H]2CCC[C@H](NC(=O)OC(C)(C)C)C2)cc1 [Compound 39c],1.5 µM
14,CCn1cnc2c1c(=O)[nH]c(=O)n2Cc1ccc(CNC(=O)C(N)c2ccc(C)cc2)cc1 (stereo not drawn) [Compound 40a],18 µM
15,CCC[C@@H](N)C(=O)NCc1ccc(Cn2c(=O)[nH]c(=O)c3c2ncn3CC)cc1 [Compound 40b],32 µM
16,CCn1cnc2c1c(=O)[nH]c(=O)n2Cc1ccc(CNC(=O)[C@@H]2C[C@@H](c3ccccc3)CN2)cc1 [Compound 40c],13 µM
17,CCn1cnc2c1c(=O)[nH]c(=O)n2Cc1ccc(CNC(=O)[C@H]2CC[C@H](CN)CC2)cc1 [Compound 41a],> 50 µM
18,CCn1cnc2c1c(=O)[nH]c(=O)n2Cc1ccc(CNC(=O)[C@@H](N)CC2CC2)cc1 [Compound 41b],> 50 µM
19,CCn1cnc2c1c(=O)[nH]c(=O)n2Cc1ccc(CNC(=O)[C@@H]2CCCNC2)cc1 [Compound 41c],> 50 µM
20,CCC[C@H](N)C(=O)NCc1ccc(Cn2c(=O)[nH]c(=O)c3c2ncn3CC)cc1 [Compound 42a],> 50 µM
21,CCn1cnc2c1c(=O)[nH]c(=O)n2Cc1ccc(CNC(=O)C2CCCC(N)C2)cc1 (stereo not drawn) [Compound 42b],32 µM
